Results reported in patent US20240197813A1, “TREATMENT OF DYSPHAGIA” (OT4B, priority 2021, published 2024).
Entries after “also recorded” stand apart in the source; their conditions may differ.

Experiments:
[1] = test system: dysphagia in patient with Prader-Willi syndrome; assay: Case report PATIENT 1: daily intranasal oxytocin, videofluoroscopic swallow study (VFSS); assay type: in vivo, human; conditions: PWS patient, 8 IU daily intranasal, 3 weeks
Excerpt: PATIENT 1 was […] with Prader-Willi syndrome due to maternal uniparental disomy diagnosed soon after at birth.
The videofluoroscopic swallow study (VFSS) was abnormal with prolonged oesophageal transit and decreased peristalsis and abnormal closure of upper oesophageal sphincter.
They received 8IU of daily intranasal OXT during 3 weeks.

[2] = test system: infants with PWS under 6 months old; conditions: cited from earlier work
[3] = test system: dysphagia in patient with neurodevelopmental disorder and hypothalamic disorder; assay: Case report PATIENT 2: daily intranasal oxytocin, VFSS and clinical symptoms; assay type: in vivo, human; conditions: 16 IU daily intranasal, 3 weeks
Excerpt: PATIENT 2 was […]. They suffered from neurodevelopmental disorder and presented hypothalamic disorder.
The VFSS was abnormal including slow pharyngeal transit with pharyngeal residues and slow oesophageal transit with oesophageal reflux and stasis.
They received daily 16 IU of intranasal OXT during 3 weeks.

## CC[C@H](C)[C@@H]1NC(=O)[C@H](Cc2ccc(O)cc2)NC(=O)[C@@H](N)CSSC[C@@H](C(=O)N2CCC[C@H]2C(=O)N[C@@H](CC(C)C)C(=O)NCC(N)=O)NC(=O)[C@H](CC(N)=O)NC(=O)[C@H](CCC(N)=O)NC1=O [oxytocin]
[1]
  VFSS overall: improved VFSS
  oesophageal transit (VFSS): improved oesophageal transit; also recorded: improve esophageal transit
  peristalsis (VFSS): complete normalization of peristalsis
  tolerability of treatment: well tolerated
  upper oesophageal sphincter closure (VFSS): normal upper oesophageal sphincter closure; also recorded: complete normalization
[2]
  tolerability of intranasal administration: well-tolerated
[2]; intranasal
  feeding and social skills: significantly improves
[3]
  clinical symptoms of dysphagia: improved clinical symptoms of dysphagia
  oesophageal transit: normalize
  oropharyngeal initiation and synchronisation: normalize oropharyngeal initiation and synchronization
  stasis and reflux on VFSS after treatment: neither stasis nor reflux
  tolerability of treatment: well tolerated
[3]; listed as OXT
  oesophageal transit: normalization of oesophageal transit
  oropharyngeal initiation and synchronisation: normalization of oropharyngeal initiation and synchronisation
